Assay [1] concerns the target T1, SHP2 (Homo sapiens, UniProt Q06124).
T1 sequence (Q06124 1-593): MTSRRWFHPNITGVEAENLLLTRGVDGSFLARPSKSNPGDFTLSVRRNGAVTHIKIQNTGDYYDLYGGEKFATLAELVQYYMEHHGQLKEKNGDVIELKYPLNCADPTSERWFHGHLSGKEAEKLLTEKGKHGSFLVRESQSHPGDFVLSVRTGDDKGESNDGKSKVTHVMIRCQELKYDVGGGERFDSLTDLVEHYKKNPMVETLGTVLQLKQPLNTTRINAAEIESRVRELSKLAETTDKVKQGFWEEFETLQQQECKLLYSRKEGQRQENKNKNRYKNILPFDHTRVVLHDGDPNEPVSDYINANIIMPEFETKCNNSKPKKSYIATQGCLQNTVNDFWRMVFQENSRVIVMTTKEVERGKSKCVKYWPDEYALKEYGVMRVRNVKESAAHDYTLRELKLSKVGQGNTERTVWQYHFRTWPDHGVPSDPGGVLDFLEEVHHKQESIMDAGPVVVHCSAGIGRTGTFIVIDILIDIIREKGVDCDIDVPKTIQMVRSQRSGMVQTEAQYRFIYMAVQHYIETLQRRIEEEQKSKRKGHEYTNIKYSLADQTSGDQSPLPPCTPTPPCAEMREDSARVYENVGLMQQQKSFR
Briefly: SHP2 catalytic activity in vitro (DiFMUP substrate). Type of assay: biochemical. Set-up: GST; made in house; host or cells: Escherichia coli BL21. The settings on record: 15 nM purified SHP2, DiFMUP 10 μM. The procedure:
(§1) Escherichia coli BL21 was used to express SHP1 and SHP2 protein and proteins were purified with GST tag. In total, 15 nM SHP1 or SHP2 purified protein, a test compound (10 μM) or DMSO and reaction buffer in 100 μL constitute the reaction system. DiFMUP (10 μM) was added to the reaction system to initiate the reaction. The inhibitory effects of compounds 1–3 were detected by Varioskan Lux with 355 nm excitation and 460 nm emission wavelengths.

The next assay deals with T2, SHP1 (Homo sapiens, UniProt P29350).
T2 construct: GST; made in house; host or cells: Escherichia coli BL21
T2 sequence (P29350 whole entry): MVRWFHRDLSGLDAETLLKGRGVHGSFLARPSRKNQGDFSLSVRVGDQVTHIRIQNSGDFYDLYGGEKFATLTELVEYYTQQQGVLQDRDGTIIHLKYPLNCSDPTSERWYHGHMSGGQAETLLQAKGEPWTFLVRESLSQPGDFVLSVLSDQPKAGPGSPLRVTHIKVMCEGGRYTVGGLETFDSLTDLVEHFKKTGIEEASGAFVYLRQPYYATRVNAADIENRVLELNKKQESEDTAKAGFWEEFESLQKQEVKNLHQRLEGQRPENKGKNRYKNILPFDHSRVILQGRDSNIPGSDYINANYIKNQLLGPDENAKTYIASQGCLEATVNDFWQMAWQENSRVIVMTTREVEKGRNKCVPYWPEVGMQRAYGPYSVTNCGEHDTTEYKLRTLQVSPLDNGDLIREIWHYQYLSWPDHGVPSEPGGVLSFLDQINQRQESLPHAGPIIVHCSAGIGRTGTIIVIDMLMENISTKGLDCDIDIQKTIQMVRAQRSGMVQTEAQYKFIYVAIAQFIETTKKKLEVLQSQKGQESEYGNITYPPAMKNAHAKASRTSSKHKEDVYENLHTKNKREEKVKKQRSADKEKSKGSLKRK
In words: SHP1 catalytic activity in vitro (DiFMUP substrate). In kind it is biochemical. Conditions: for inhibitory effect on SHP1 catalytic activity: at high concentrations. The method, then: as §1

The test system of assay [2] is A549 cells. In words: A549 cell wound-healing assay. Type of assay: cell-based, Human. The settings on record: up to 72 h. The method, then: When the A549 cell covered 80% of cell culture dish, these cells were seeded in 6-well plates at 5 × 10^5 cells/well, respectively. After the cells adhered to the plates, wound formation was performed by 200 μL pipette tips. Then, A549 cells were treated with different concentrations of compound 2 for 72 h. The image of each gap was obtained by Leica TCS SP8 (Leica, Wetzlar, Germany) at 0, 24, 72 h, respectively.

In assay [3] the test system is cleaved caspase-3, 8, 9 and cleaved-PARP. In words: Western blot of apoptosis-related signaling pathway. In kind it is cell-based, Human. Conditions: A549, 72 h. The procedure:
(§2) After compound 2 treatment, RIPA buffer was used to lyse cells’ protein. Equal sample proteins were added in SDS-PAGE, separated with 100 V in 60 min, then transferred into PVDF membranes, and the membranes incubated with corresponding primary antibodies (Huabio, Hangzhou, China). GAPDH or Tubulin served as normal control.
In general terms: Immunoblotting shows a protein as a band on a membrane.

For assay [4], the system named is p-ERK1/2, PI3K-AKT and STAT3 signaling pathways. Briefly: Western blot of ERK, AKT, STAT3 signaling pathway. Type of assay: cell-based, Human. The settings on record: A549, 72 h. The method, then: as §2
Assay [5] has as its system A549 cells. In words: A549 cell invasion assay (matrigel). In kind it is cell-based, Human. The settings on record: 24 h incubation. The procedure: The inner chamber was pre-coated with matrigel. Cells were seeded in the inner chamber with FBS-free medium, and DMEM medium with 5% FBS was added to the outer chamber. After a 24 h treatment with compound 2, 4% paraformaldehyde was used to fix the cells and 0.1% crystal violet was used to stain A549 cells.

For assay [6], the target named is T1, SHP2. In words: Cellular thermal shift assay (CETSA). Type of assay: binding. Set-up: endogenous in cells; host or cells: A549. The settings on record: A549 cell supernatant. The method, then: A total of 549 cells in 12 cm dish were collected and washed with PBS three times. After three rounds of liquid nitrogen-thaw and centrifugation at 13,000× g for 10 min at 4 °C, the cell supernatant was collected. The cell supernatant was divided into two aliquots of 50 μL each. Compound 2 or DMSO was added to each sample. The sample was heated from 50 °C to 62 °C, then cooled for 3 min [33]. Finally, all samples were processed under 4.7.

Assay [7] deals with A549 cells. Briefly: Cell viability assay (CCK-8). Type of assay: cell-based, Human.
The subject of assay [8] is SHP2. In words: Western blot of cellular SHP2 / p-SHP2 expression. In kind it is cell-based, Human. The settings on record: A549, 72 h. The method, then:
as §2

Another assay relates to caspase-3. Briefly: Caspase-3 activity assay (Ac-DEVD-AFC). Type of assay: cell-based, Human. Conditions: A549, 72 h. The method, then: Ac-DEVD-AFC, a caspase-3 fluorimetric substrate, was used to detect caspase-3 activity. After 72 h treatment with compound 2, cell supernatants were collected. The 20 μL cell supernatants, 100 μM Ac-DEVD-AFC, and reaction buffer constituted the 100 μL reaction system, and was then incubated at 37 °C for another 1 h. Caspase-3 activity was detected by Varioskan Lux with 405 nm excitation and 510 nm emission wavelengths.

For assay [9], the system named is A549 cells. Briefly: Apoptosis flow cytometry (Annexin V-FITC/PI). Type of assay: cell-based, Human. Conditions: A549, 72 h. The procedure: After 72 h treatment with different concentrations of compound 2, A549 cells were collected and rinsed three times with PBS. A 195 μL Annexin V-FITC buffer, 5 μL Annexin V-FITC, and 10 μL PI were sequentially added to each sample. The apoptotic cells were detected and analyzed by flow cytometry (ACEA NovoCyte, Hangzhou, China).
In general terms: A flow cytometer gives signals particle by particle.

SMILES strings stand for the structures.

As to `CC1=C(C)C2=CC(=O)c3c(O)c4c(c(O)c3[C@@]2(C)CC1=O)OC[C@H]4C` [Compound 3, Ajudecumin A], the IC50 against SHP2 [1] is 20 ± 1.31 µM. Also, the “inhibitory effect on SHP1 catalytic activity” value on SHP1 is on record as “inhibited SHP1 catalytic activity at high concentrations”.
As for `CC1=C(C)C2=CC(=O)c3c(c(O)c4occ(C)c4c3O)[C@@]2(C)CC1` [Compound 2, Ajuforrestin A], the A549 cell migration result in the assay with A549 cells [2] is given as “significantly restrained A549 cell migration”. Further, the cleaved-PARP entry in assay [3] is recorded as “activated”. Besides, in assay [3] (various doses), the “cleaved caspase-3, 8, 9” value is recorded as “up-regulated”. Further, the p-ERK1/2 expression result in [4] is “markedly inhibited p-ERK1/2 expression”. In addition, the “PI3K-AKT and STAT3 signaling pathways” value in assay [4] (various concentrations) is recorded as “obviously inhibited”. Moreover, the “A549 cell invasion ability” value with A549 cells [5] was “obviously decreased”. In addition, on SHP2 [6], the “SHP2 stability with increasing concentration (CETSA)” value was “raised SHP2 stability”. Also, on SHP2 [6] (50 °C to 62 °C), the “SHP2 thermal stability (CETSA)” value was “decrease in SHP2 expression with increasing temperature was suppressed”. Besides, in the assay on A549 cells [7] (24 h treatment), the A549 cell viability entry was “did not affect A549 cell viability”. The IC50 in the assay on A549 cells [7] (Homo sapiens, A549, CCK-8, 72 h, read-out: IC50 A549 cell proliferation) was determined as 8.68 ± 0.96 µM; at SHP2 [1], 7.01 ± 0.85 µM. In the assay on SHP2 [8], the “cellular SHP2 expression” value was “suppressed SHP2 expression in a dose-dependent manner”. Besides, the “expression of SHP2 and phosphorylation of SHP2” value in the assay on SHP2 [8] is “down-regulated”. For the same compound, on SHP1 (below 20 μM), the “inhibitory effect on SHP1” value is recorded as “no inhibitory effects”. In the assay with caspase-3, the caspase-3 expression result is reported as “significant rise in caspase-3 expression in a dose-dependent manner”. The apoptotic cells result in the assay on A549 cells [9] was “obvious increase in apoptotic cells”.
In the case of `CC1=C(C)C2=CC(=O)C3=C(C(=O)c4oc(C)cc4C3=O)[C@@]2(C)CC1` [Compound 1, 12, 16-epoxy-17(15→16), 18(4→3)-diabeo-abieta-3,5,8, 12, 15-pentaene-7, 11, 14-trione], the IC50 against SHP2 [1] came out at 26 ± 1.41 µM. Besides, at SHP1, the “inhibitory effect on SHP1 catalytic activity” value is “inhibited SHP1 catalytic activity at high concentrations”.

Values taken from PMC9457730, “Ajuforrestin A, an Abietane Diterpenoid from Ajuga ovalifolia var. calanthe, Induces A549 Cell Apoptosis by Targeting SHP2” (Molecules, 2022).
